Data on one molecule can be found in publication PMC10617776, “Bi-steric mTORC1 inhibitors induce apoptotic cell death in tumor models with hyperactivated mTORC1” (The Journal of Clinical Investigation, 2023).

The test system of one assay is T1, 855T Tsc1-.
T1 construct: Tsc1-null
Kind of assay: cells. Further details: cell proliferation by crystal violet staining, absorbance 540 nm. To be noted: 72 h.

For another assay, the system named is T2, RT4 TSC1-.
T2 construct: TSC1-null
Kind of assay: cells. Also noted: cell proliferation by crystal violet staining, absorbance 540 nm. The settings on record: 72 h.

The test system of another assay is T3, 97-1 TSC1-.
T3 construct: TSC1-null
Kind of assay: cells. Further details: cell proliferation by crystal violet staining, absorbance 540 nm. To be noted: 72 h.

The subject of the next assay is T4, 705 Tsc2-.
T4 construct: Tsc2-null
Kind of assay: cells. To be noted: 72 h. Also noted: cell proliferation by crystal violet staining, absorbance 540 nm.

In the next assay the test system is T5, KTP-269-3C4 Tsc1-.
T5 construct: Tsc1-null
Briefly: cells. Also noted: cell proliferation by crystal violet staining, absorbance 540 nm. To be noted: 72 h.

In another assay the test system is T6, 705 TSC2+.
T6 construct: TSC2 add-back
Kind of assay: cells. Further details: cell proliferation by crystal violet staining, absorbance 540 nm. The settings on record: 72 h.

For another assay, the system named is T7, HCV29 TSC1-.
T7 construct: TSC1-null
Kind of assay: cells. Further details: cell proliferation by crystal violet staining, absorbance 540 nm. To be noted: HCV-29, 72 h. The protocol:
(§1) The effect of the compounds on cell proliferation was measured by crystal violet staining. Cells were plated in 96-well plates at a density of 500–2,000 cells (sextuples per condition). The next day, cells were treated with concentrations (0–100 nM) prepared by serial dilution. After 3 days of treatment, cells were fixed by 10% formalin for 10 minutes at room temperature. 0.05% crystal violet solution was added and incubated for 15 minutes at room temperature. Absorbance was read using Synergy HT (BioTek) at 540 nm. The inhibition curves and IC50 values were calculated by GraphPad Prism 9.0. TSC1-null HCV29 (BLCA cell line) and its TSC1–add-back derivative were treated with rapamycin, MLN0128, and bi-steric mTORC1 inhibitors.

Another assay concerns T8, SNU886 TSC2+.
T8 construct: TSC2 add-back
Briefly: cells. Further details: cell proliferation by crystal violet staining, absorbance 540 nm. The settings on record: SNU-886, 72 h. As to the method: as §1

The subject of another assay is T9, HCV29 TSC1+.
T9 construct: TSC1 add-back
Briefly: cells. The settings on record: HCV-29, 72 h. Further details: cell proliferation by crystal violet staining, absorbance 540 nm. As to the method: as §1

The subject of the next assay is T10, KTP-267-1B1 Tsc1-.
T10 construct: Tsc1-null
Kind of assay: cells. Also noted: cell proliferation by crystal violet staining, absorbance 540 nm. To be noted: 72 h. The protocol:
as §1

Another assay concerns the target T11, mTOR (mTORC1 and mTORC2) (Homo sapiens, UniProt P42345).
T11 construct: endogenous mTOR in HCV29 TSC1-null cells
Briefly: immunoblot of mTORC1/mTORC2 substrate phosphorylation in cells ([…] h treatment). Format: cell-based. On the technique in general: Immunoblotting shows a protein as a band on a membrane.

The next assay deals with T12, 105K Tsc2-.
T12 construct: Tsc2-null
Kind of assay: cells. The settings on record: 72 h. Also noted: cell proliferation by crystal violet staining, absorbance 540 nm.

Another assay relates to T13, 105K Tsc2+.
T13 construct: Tsc2 add-back
Kind of assay: cells. Also noted: cell proliferation by crystal violet staining, absorbance 540 nm. To be noted: 72 h.

In the next assay the test system is T14, 857T Tsc1+.
T14 construct: Tsc1 wild-type
Briefly: cells. Also noted: cell proliferation by crystal violet staining, absorbance 540 nm. To be noted: 72 h.

The test system of the next assay is T15, 97-1 TSC1+.
T15 construct: TSC1 add-back
Kind of assay: cells. Further details: cell proliferation by crystal violet staining, absorbance 540 nm. The settings on record: 72 h.

A further assay concerns T16, TTJ Tsc2-.
T16 construct: Tsc2-null
Briefly: cells. Further details: cell proliferation by crystal violet staining, absorbance 540 nm. The settings on record: 72 h.

In the next assay the test system is T17, TTJ Tsc2+.
T17 construct: Tsc2 add-back
Kind of assay: cells. Further details: cell proliferation by crystal violet staining, absorbance 540 nm. The settings on record: 72 h.

The next assay deals with T18, KTP-267-2B8 Tsc1-.
T18 construct: Tsc1-null
Kind of assay: cells. Also noted: cell proliferation by crystal violet staining, absorbance 540 nm. The settings on record: 72 h.

The next assay deals with T19, 634T Tsc1-.
T19 construct: Tsc1-null
Briefly: cells. Further details: cell proliferation by crystal violet staining, absorbance 540 nm. The settings on record: 72 h.

`CC(C)n1nc(-c2ccc3oc(N)nc3c2)c2c(N)ncnc21` [MLN0128]: the half-maximal inhibitory concentration (IC50) (usually the concentration that gives 50% inhibition) with 855T Tsc1- is 31.6 nM; in the assay with RT4 TSC1-, 63.1 nM; in the assay with 97-1 TSC1-, 39.8 nM; with 705 Tsc2-, 50.1 nM; with KTP-269-3C4 Tsc1-, 26.9 nM; in the assay on 705 TSC2+, 50.1 nM. The half-inhibitory concentration (IC50) in the assay with HCV29 TSC1- was determined as 31.6 nM; in the assay with SNU886 TSC2+ it was 44.7 nM; in the assay on HCV29 TSC1+, 35.5 nM; in the assay with KTP-267-1B1 Tsc1-, 44.7 nM; with 105K Tsc2-, 41.7 nM; in the assay with 105K Tsc2+, 79.4 nM. In addition, the IC50 is 70.8 nM with 857T Tsc1+; 46.8 nM with 97-1 TSC1+; 63.1 nM in the assay with TTJ Tsc2-; 50.1 nM in the assay on TTJ Tsc2+; 28.2 nM in the assay on KTP-267-2B8 Tsc1-; 60.3 nM in the assay on 634T Tsc1-. The “immunoblot of mTORC1/mTORC2 substrate phosphorylation in cells (4 h treatment)” value at mTOR (mTORC1 and mTORC2) is 10 to 30 nM.
